Like-named read-outs stand apart in the source and are kept apart here.
Experiments:
LIM1215 = assay: Cellular activity, MTT cell growth assay, LIM1215; format: cell-based; details: LIM1215, 96 h, read-out: LIM1215 (cellular data)
Description: (§1) A. Cells, Inhibitors and Incubation
(§2) 1. Cell Lines • LIM 1899 colon carcinoma derived epithelial cells were grown in RPMI+Adds^1+10% FCS. ^1 Additives for culture of LIM cell lines: 10 μM thioglycerol, 0.025 U/mL insulin, 1 μg/mL hydrocortisone
(§3) 2. Cell Plating in 96 Well Plate. • Assay medium: RPMI+Adds+5% FCS • Cells are trypsinized, washed once in assay medium and brought to the required concentration as described below: • Need 10^4 cells per well in 100 μL per well=10^5 per mL for plating • After washing, cells were resuspended in 5 mL and counted (1×T75 flask gives approx 2−3×10 eg^6 per mL). • Cells were then diluted to 10^5 cells/mL (need 10 mL minimum per plate). • Eg. Cell count in 5 mL is 25×10^5/mL • For 10^5/mL, dilute 1 mL to 25 mL • 100 μL per well cells were plated with multistepper pipette, over the whole plate. Plates were incubated overnight at 37° C.+5% CO2 incubator.
(§4) 3. Inhibitor Stocks • Inhibitors were dissolved in DMSO for 10 mM stocks. MW and amount of compound given was used to calculate the volume required for each. • 4× the highest concentration of the compound in the assay was calculated to prepare the working stocks. • eg 1st well final concentration in assay was 10 μM. • Therefore working stock was 40 μM • Stock solution is 10 mM→40 μM=4 μl in 1.0 mL assay medium for working stock.
(§5) 4. Plate Plan: • Rows A,B: Inhibitor 1 • Rows C,D: Inhibitor 2 • Rows E,F: Inhibitor 3 • Row G: RPMI+Adds+5% FCS (=maximum growth) • Row H: RPMI+Adds serum free (=minimum growth)
(§6) 5. Titration of Inhibitors • A 96 well plate was used to titrate the inhibitors for each assay plate: • 150 μL assay medium was added to each well of a 96 well plate. • 150 μL of Inhibitor 1 working stock was added wells A1 and B1. • Repeated with Inhibitor 2 to C1 and D1 • Repeated with Inhibitor 3 to E1 and F1 • Serial ½ dilutions were performed across the plate, rows A to F, left to right with 150 μL.
(§7) 6. Transfer Titrated Inhibitors to Cell Assay Plate: Final Volume 200 μl • Using a multichannel pipette, 100 μL was transferred from the corresponding wells of the titration plate to the cell assay plate, rows A to G. • Row H: medium was carefully removed from the cell wells with a 200 μL tip, and replaced with 200 μL serum free medium.
(§8) 7. Incubation • Plates were incubated for 4 days at 37° C. with 5% CO2.
(§9) B. Use of MTT to Measure Cell Growth
(§10) 1. MTT Preparation and Storage • MTT Sigma M-2128 5 g • Dissolved in PBS, at 5 mg/mL • 5 g bottle dissolved in 1 liter PBS (some impurities remain) • Filter sterilized and aliquoted in 50 mL tubes, stored at −20° C. • As needed, 50 mL tube was thawed and aliquoted in 5 mL tubes, re-stored at −20° C. • Stable at 4° C. for 1 month (unstable if left at 37° C. too long while thawing)
(§11) 2. MTT Solvent • a. 1M HCl: • Mixed 44.6 mL conc HCl (11.2M) in 500 mL DDW • b. Acidified isopropanol (Isopropanol with 0.04 N HCl): • Mixed 20 mL 1M HCl with 480 mL isopropanol (Propan-2-ol, iso-Propyl Alcohol)
(§12) 3. MTT Assay • After cell incubation (above): • Added 10 μL MTT to each well. • Incubated 4 hrs in 37° C. incubator. • Spun plates, 5 min, 1500 rpm. • Carefully flicked out medium into the sink, without disturbing the crystals. • Added 200 μL acidified isopropanol per well. • Placed on plate shaker, RT, speed 6.5, for 10 min-30 min. • Read OD of plates on Thermo Multiskan Ex, at 560/690 nm.
(§13) • Mosmann, T. • Rapid colorimetric assay for cellular growth and survival: application to proliferation and cytotoxic assays. Journal of Immunological Methods (1983), 65:55-63. Table with Examples of Cellular Data
(§14) The compounds in this invention display cellular activities against a range of tumour or transformed cell lines in particular colon cancer cell lines such as LIM1215, LIM2537 and LIM1899.

[1] = biological target: T1, Src recombinant enzyme, N-terminally His6 tagged full-length human protein (Homo sapiens, UniProt P12931); assay: SRC kinase inhibition assay (AlphaScreen); format: biochemical; details: 80 μM ATP, 90 minutes at 30 degree Celsius
T1 construct: Src recombinant enzyme was purchased as N-terminally His6 tagged full-length human protein; His6 (N); purchased
T1 sequence (P12931 whole entry): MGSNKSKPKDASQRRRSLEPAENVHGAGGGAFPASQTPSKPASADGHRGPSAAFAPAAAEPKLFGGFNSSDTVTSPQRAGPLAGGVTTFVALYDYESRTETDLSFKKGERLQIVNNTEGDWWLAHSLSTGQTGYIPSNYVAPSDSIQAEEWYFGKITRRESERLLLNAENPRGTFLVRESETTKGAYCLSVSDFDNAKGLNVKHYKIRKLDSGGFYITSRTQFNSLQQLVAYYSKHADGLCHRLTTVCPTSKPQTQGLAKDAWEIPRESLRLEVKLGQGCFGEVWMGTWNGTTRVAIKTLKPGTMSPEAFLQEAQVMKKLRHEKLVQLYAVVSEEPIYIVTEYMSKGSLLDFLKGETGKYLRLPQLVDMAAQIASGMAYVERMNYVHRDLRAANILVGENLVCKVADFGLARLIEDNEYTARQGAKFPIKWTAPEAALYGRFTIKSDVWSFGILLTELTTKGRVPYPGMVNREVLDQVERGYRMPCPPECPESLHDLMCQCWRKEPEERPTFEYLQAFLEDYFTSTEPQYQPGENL
Description: Protocol for SRC Kinase Inhibition Assay. Compounds of the invention were tested for in vitro activity in the following assay: A biotin labeled peptide was used as substrate (amino acid sequence: Biotin-[…]). Src recombinant enzyme was purchased as N-terminally His6 tagged full-length human protein. The 15 μL assay reactions were run in Greiner brand white 384-well low volume plates. […] Compounds were added in a volume of 100 nL from dilution series made up in DMSO, positive and negative control reactions receiving the same volume DMSO without compounds. The plates were sealed with adhesive seals and incubated for 90 minutes at 30 degree Celsius. The reactions were stopped with the detection reagents added at the same time. Product formation was quantified as photochemiluminescence between PerkinElmer AlphaScreenTM beads, using Streptavidin-coated donor and anti-phosphotyrosine (P-[…]) acceptor beads. […] Plates were incubated for 5 hours before being read on a PerkinElmer EnVisionTM plate reader in HTS AlphascreenTM mode. IC50 values were obtained by calculating percent inhibition (% I) for each reaction relative to controls on the same plate (% [SMILES] where CN/CP are the averages of the negative/positive reactions, respectively), then fitting the % I data vs. compound concentration [I] to % I=([…])))) where A is the lower asymptote, B is the upper asymptote, C is the IC50 value, and D is the slope factor.

RasNIH3T3 = assay: Cellular activity, MTT cell growth assay, RasNIH3T3; format: cell-based; details: 96 h, read-out: RasNIH3T3 (cellular data)
LIM2537 = assay: Cellular activity, MTT cell growth assay, LIM2537; format: cell-based; details: 96 h, 4 days incubation
Description: as §1, §2, §3, §4, §5, §6, §7, §8, §9, §10, §11, §12, §13, §14

[2] = system: LIM 1899 colon carcinoma derived epithelial cells; assay: Cellular activity, MTT cell growth assay, LIM1899; format: cell-based; details: 96 h, 4 days incubation
Description: as §1, §2, §3, §4, §5, §6, §7, §8, §9, §10, §11, §12, §13, §14

[3] = system: SFKs (Src family kinases); details: reported; no discrimination between family members; cited from earlier work
Solubility = format: physicochemical

| IC50 [1] [µM] | IC50 [2] [µM] | SMILES | IC50 (LIM1215; MTT, 4 days incubation) [µM] | IC50 (RasNIH3T3; MTT, 4 days incubation) [µM] | other results |
| --- | --- | --- | --- | --- | --- |
| 0.001 to 0.1 | – | Cc1ccc(-c2nn(C(C)(C)CNC(=O)c3cc(Br)ccn3)c3ncnc(N)c23)cc1 [Example 42] | 0.9 | 1.9 | – |
| 0.001 to 0.1 | 0.17 | Cc1ccc(-c2nn(C(C)(C)CNC(=O)c3ccccn3)c3ncnc(N)c23)cc1 [Example 12] | 0.17 | 0.11 | IC50 (LIM2537): 0.17 µM |
| 0.001 to 0.1 | 0.88 | Cc1ccc(-c2nn(C(C)(C)CNC(=O)c3cscn3)c3ncnc(N)c23)cc1 [Example 64] | – | 0.63 | IC50 (LIM2537): 1.1 µM |
| 0.1 to 1 | 0.9 | Cc1ccc(-c2nn(C(C)(C)CNC(=O)c3cc(C)ccn3)c3ncnc(N)c23)cc1 [Example 65] | 0.96 | 1.67 | – |
| 0.001 to 0.1 | 0.31 | Cc1ccc(-c2nn(C(C)(C)CNC(=O)c3cc(-c4ccccc4)ccn3)c3ncnc(N)c23)cc1 [Example 66] | 0.52 | 0.5 | – |
| 0.1 to 1 | – | Cc1ccc(-c2nn(C(C)(C)CNC(=O)c3cccnc3)c3ncnc(N)c23)cc1 [Example 60] | 1.9 | 17 | – |
| 0.001 to 0.1 | – | Cc1ccc(-c2nn(C(C)(C)CNC(=O)c3ccncn3)c3ncnc(N)c23)cc1 [Example 62] | 0.25 | 0.35 | – |
| 0.1 to 1 | – | Cc1ccc(-c2nn(C(C)(C)CNS(=O)(=O)c3ccccc3)c3ncnc(N)c23)cc1 [Example 59] | 3.1 | > 20 | – |
| 0.001 to 0.1 | 1.6 | COc1ccnc(C(=O)NCC(C)(C)n2nc(-c3ccc(C)cc3)c3c(N)ncnc32)c1 [Example 61] | 0.8 | 1.83 | – |
| 0.001 to 0.1 | – | Cc1ccc(-c2nn(C(C)(C)CNC(=N)c3ccccn3)c3ncnc(N)c23)cc1 [Example 77] | – | – | IC50 (LIM2537): > 10 µM |
| 1 to 10 | 19 | Cc1ccc(-c2nn(C(C)(C)CNC(=N)c3ccccc3)c3ncnc(N)c23)cc1 [Example 76] | – | – | IC50 (LIM2537): > 10 µM |
| 1 to 10 | – | Cc1ccc(-c2nn(C(C)(C)CNC(=O)c3cncnc3)c3ncnc(N)c23)cc1 [Example 57] | 1.6 | > 20 | – |
| > 10 | 3.1 | Cc1ccc(-c2nn(C(C)(C)CNC(=O)c3ncccc3C)c3ncnc(N)c23)cc1 [Example 71] | – | – | – |
| 0.001 to 0.1 | 0.9 | CC(C)(CNC(=O)c1ccccn1)n1nc(-c2ccc(Cl)cc2)c2c(N)ncnc21 [Example 75] | – | – | IC50 (LIM2537): 1.6 µM |
| – | – | CC(C)(C)n1nc(-c2ccc(Cl)cc2)c2c(N)ncnc21 [PP2] | – | – | inhibition of SFKs [3]: potent inhibitors; solubility (Solubility): poorly soluble |
| 0.001 to 0.1 | – | Cc1ccc(-c2nn(C(C)(C)CNC(=O)c3cnccn3)c3ncnc(N)c23)cc1 [Example 56] | 0.4 | 1.62 | – |
| – | 1.2 | Cc1nc(Nc2ncc(C(=O)Nc3c(C)cccc3Cl)s2)cc(N2CCN(CCO)CC2)n1 [Dasatinib, reference compound] | 2 | 9 to 12 | – |
| 0.1 to 1 | 1.7 | Cc1ccc(-c2nn(C(C)(C)CNC(=O)c3cc(Cl)ccn3)c3ncnc(N)c23)cc1 [Example 63] | 2.6 | 6.29 | – |
| 1 to 10 | 1.1 | Cc1ccc(-c2nn(C(C)(C)CNC(=O)c3cccc(C)n3)c3ncnc(N)c23)cc1 [Example 73] | – | – | – |
| – | – | Cc1ccc(-c2nn(C(C)(C)C)c3ncnc(N)c23)cc1 [PP1, reference compound] | – | – | inhibition of SFKs [3]: potent inhibitors; IC50 (LIM1215): 0.25 µM; solubility (Solubility): poorly soluble; IC50 (RasNIH3T3): 9.25 µM |
| 0.1 to 1 | – | Cc1ccc(-c2nn(C(C)(C)CNC(=O)c3cc(N4CCOCC4)ccn3)c3ncnc(N)c23)cc1 [70 (compound 70C)] | – | – | – |
| 0.001 to 0.1 | – | Cc1ccc(-c2nn(C(C)(C)CNC(=O)CC#N)c3ncnc(N)c23)cc1 [Example 19] | – | – | – |

| SMILES | IC50 [1] [µM] | IC50 [2] [µM] | IC50 (LIM1215; MTT, 4 days incubation) [µM] | IC50 (RasNIH3T3; MTT, 4 days incubation) [µM] | other results |
| --- | --- | --- | --- | --- | --- |
| CC(C)(CNC(=O)c1ccccc1)n1nc(-c2ccc(Cl)cc2)c2c(N)ncnc21 [74 (compound 74F)] | – | > 20 | – | – | IC50 (LIM2537): > 10 µM |
| Cc1ccc(-c2nn(C(C)(C)CNC(=O)c3ccccc3)c3ncnc(N)c23)cc1 [Example 11] | 0.1 to 1 | 1.7 | – | – | – |
